Source: US20230270867A1, “CONJUGATE IN WHICH FL118 DRUG IS LINKED TO ACID-SENSITIVE LINKER, AND IMMUNOCONJUGATE USING SAME” (PINOTBIO, INC., priority 2020, published 2023)

How the values were obtained:
[1] = tested on: various cancer cell lines; assay: Cytotoxicity of FL118 in various cancer cell lines; assay type: cell-based; settings: 140 cell lines originating from various cancers; against most cancer cells
[2] = tested on: MDA-MB-468 cells; assay: In vivo drug efficacy, MDA-MB-468 xenograft model (sacituzumab / Example 9); parameters: species or system mice; settings: MDA-MB-468 model, Group 2, dose not given

Compound	IC50 [1]	Tumor volume ([2]; Day 0)	TGI ([2]; Day 21)	Tumor volume ([2]; Day 21)
CCC1(O)C(=O)OCc2c1cc1n(c2=O)Cc2cc3cc4c(cc3nc2-1)OCO4 (stereo in doubt) [FL118, (4S)-4-ethyl-4-hydroxy-8,9-methylenedioxy-1H-pyrano[3′,4′:6,7]indolizino[1,2-b]quinoline-3,14(4H,12H)-dione]	< 100 nM	–	–	–
sacituzumab: Trop-2 target antibody; control	–	200.20 ± 30.90 mm^3	43.6%	433.08±126.82 mm^3
